Measured values taken from BigSolDB 2.1.

Nc1ncc(Br)nc1Br
solubility (mole fraction)
Details	278.15 K	283.15 K	288.15 K	293.15 K	298.15 K	303.15 K	308.15 K	313.15 K	318.15 K	323.15 K
in ethanol	0.000754	0.000938	0.00115	0.00136	0.00158	0.0018	0.00202	0.00231	0.00261	0.00291
in ethylene glycol	0.000127	0.000155	0.000185	0.000219	0.000256	0.000291	0.00033	0.000373	0.00042	0.000469
in isopropanol	0.000516	0.000615	0.00072	0.00085	0.000986	0.00115	0.00131	0.00149	0.00169	0.00192
in propylene glycol	0.000258	0.000304	0.00037	0.000432	0.000506	0.000577	0.000651	0.000734	0.000827	0.000928
in water	2.55e-06	3.14e-06	3.73e-06	4.44e-06	5.18e-06	5.89e-06	6.76e-06	7.68e-06	8.61e-06	9.63e-06

Nc1nccnc1Cl
solubility (mole fraction)
Details	278.15 K	283.15 K	288.15 K	293.15 K	298.15 K	303.15 K	308.15 K	313.15 K	318.15 K	323.15 K
in DMF	0.00918	0.0122	0.0155	0.02	0.0247	0.0295	0.0346	0.04	0.0456	0.0515
in ethylene glycol	0.000725	0.000935	0.00117	0.00147	0.0018	0.00217	0.00257	0.00301	0.00348	0.00394
in isopropanol	0.002	0.00254	0.00319	0.004	0.00488	0.00591	0.00697	0.008	0.00929	0.0109
in methanol	0.00283	0.00372	0.00479	0.00598	0.00723	0.00847	0.01	0.0116	0.0133	0.0153
in water	2.78e-05	3.74e-05	4.95e-05	6.21e-05	7.6e-05	9.05e-05	0.000106	0.000123	0.00014	0.000158
